Results reported in ChEMBL document CHEMBL4602656, “Synthesis and evaluation of 4-(1,3,4-oxadiazol-2-yl)-benzenesulfonamides as potent carbonic anhydrase inhibitors” (Bioorg Med Chem Lett, 2020).
Active and inactive are the calls of the source. The rule behind the calls is not given here.

Key:
HEK-293T = experiment: Cytotoxicity against human HEK293T cells assessed as reduction in cell viability at 5 to 200 uM incubated for 48 hrs by MTS assay; format: cell-based
Mus musculus = experiment: Anti-hypoxia in mouse assessed as increase in mouse survival at 400 mg/kg, po administered for 3 days and observed upto day 3 after dosing of 1.5 hrs; format: functional, organism-based
[1] = Solubility of compound; format: physicochemical

Structure (SMILES) | Activity (HEK-293T) | Activity (Mus musculus) | solubility [1]
CN(C)c1ccc(-c2nnc(-c3ccc(S(N)(=O)=O)cc3)o2)cc1.CS(=O)(=O)O | Non-Toxic | Active | 
CC(=O)Nc1nnc(S(N)(=O)=O)s1 [ACETAZOLAMIDE] | Non-Toxic | Active | 
Cc1ccc(-c2nnc(-c3ccc(S(N)(=O)=O)cc3)o2)c(C)c1 | Non-Toxic |  | Insoluble
NS(=O)(=O)c1ccc(-c2nnc(-c3cccc(Cl)c3Cl)o2)cc1 | Non-Toxic |  | Insoluble
